Source: a melting point compilation (Tetko et al.; mined from patent text by program, amines drawn as free bases though some values may be those of a salt)

First: COC(=O)CCCc1cc2nc(C(F)(F)F)ccc2n1S(=O)(=O)c1ccc(C(C)C)cc1
Second: Cc1c(C#N)cc(C(C)(C)C)c(O)c1C(=O)Nc1ccc(S(=O)(=O)c2ccc(Br)cc2)cc1C(F)(F)F
The melting point of the first is lower: 78 °C for the first, 221 to 223 °C for the second.

First: Cc1ccc(OCC(CO)NC(C)(C)C)c(-c2ccc(NN)nn2)c1 (stereo unspecified)
Second: CCCOc1ccccc1-c1nc2n(C(C)(C)C)[nH]cc-2c(=O)n1
The melting point of the first is higher: 172 to 178 °C for the first, 130 to 131 °C for the second.

First: COCCNC(=O)c1cccc(-c2cccc3cc(Cc4ccc(F)c(OC)c4)sc23)c1
Second: COc1ccc(-c2ccc3nnn(Cc4ccc5ncccc5c4)c3n2)cc1F
The melting point of the first is lower: 70 to 71 °C for the first, 187 to 190 °C for the second.

First: COc1ccc(/C=C/C(=O)N2CC(CCl)c3c2cc(O)c2ncccc32)cc1O (stereo unspecified)
Second: COc1cc(C(C)=O)ccc1OCCCN1CCC(c2noc3cc(F)ccc23)CC1
The melting point of the first is higher: 215 to 218 °C for the first, 118 to 120 °C for the second.

First: O=Cc1c(N2CCCC2)n(C2OC(CO)C(O)C2O)c2cc(Cl)c(Cl)cc12 (stereo unspecified)
Second: O=C(NCC12CC3CC(CC(C3)C1)C2)c1cc(-c2cccnc2N2CCCC(C(=O)O)C2)ccc1Cl (stereo unspecified)
The melting point of the first is higher: 131 to 134 °C for the first, 125 to 130 °C for the second.

Compared with NC(=O)c1ccnc(Oc2cccc(C(F)(F)F)c2)n1, Nc1nc(N)c(-c2cccc3ccccc23)c(C(F)(F)F)n1 is higher in melting point: 113 °C for the first, 224 to 226 °C for the second.

Compared with CCc1cccc(CC)c1NC(=O)Nc1oc2ccc(Cl)cc2c1-c1ccccc1C, CCOC(=O)C1N=C(c2ccccc2)c2cc(Cl)ccc2N(C)C1=O (stereo unspecified) is lower in melting point: 233 to 234 °C for the first, 180 °C for the second.

First: c1ccc(-c2ccnc(-c3ccc4cc[nH]c4c3)n2)cc1
Second: Cc1cccc(-c2nc(N)sc2-c2ccnc(NCc3ccccc3)c2)c1
The melting point of the first is lower: 160 °C for the first, 178 to 179 °C for the second.

First: COC(=O)C1CNCCN1C(=O)/C=C/c1ccc(Sc2ccc3c(c2)OCCO3)c(C(F)(F)F)c1 (stereo unspecified)
Second: CCCn1nc(C(=O)c2cccc(O)c2)c2cccc(C(F)(F)F)c21
The melting point of the first is lower: 70 to 72 °C for the first, 118 °C for the second.

First: O=[N+]([O-])c1cccc2cc(-c3ncns3)[nH]c12
Second: O=C1c2ccccc2C(=O)N1c1ncnc2[nH]ccc12
The melting point of the first is lower: 186 to 187 °C for the first, 276 to 277 °C for the second.

First: COC(=O)Cc1ccccc1SCc1cccc(OC)c1
Second: COC(=O)CCc1ccc(OCc2sc3ccccc3c2Cl)cc1
The melting point of the first is lower: 87 to 89 °C for the first, 97 to 98 °C for the second.

O=C(Cc1ccnc(Br)c1)c1ccccn1 and CCOC(=O)CNc1ncccc1NC(=O)c1ccccc1OC cannot be ordered by melting point: 111 °C for the first, 111 to 112 °C for the second.

First: CCC1=NC=C(c2ccc3c(c2)NC(=O)CO3)C(c2ccccc2)S1 (stereo unspecified)
Second: CCN(CC)C(=O)c1ccc(-c2nc(=O)c3ccccc3s2)cc1
The melting point of the first is lower: 130 to 134 °C for the first, 180 °C for the second.

First: CCCCCC(=O)c1cnc2c(OC)cccc2c1Nc1ccccc1C
Second: CCCOc1ccccc1-c1nc(NC(=O)CCC)cc(=O)[nH]1
The melting point of the first is lower: 94 to 96 °C for the first, 177 to 178 °C for the second.

Compared with CC(C)NC(=O)Nc1ccnnc1, CNC(=O)NC(=O)/C(=C/C(C)C)c1ccc(Cl)c(Cl)c1 is lower in melting point: 206 to 209 °C for the first, 177 to 178 °C for the second.

First: COC1=C(OC)C(=O)C(CCCCCCCCCCCCCCCCCCCCCC(=O)O)=C(C)C1=O
Second: CCCCCCCCCCCCCCCCN1CCN(c2ccc(C=CC(=O)O)cc2)CC1
The melting point of the first is lower: 86 to 87 °C for the first, 251 to 253 °C for the second.

First: Cc1conc1-c1nnc2c3ccccc3c(OCc3ccccn3)nn12
Second: Cc1noc(-c2ncn3c2CN(C)C(=O)c2c(Cl)cccc2-3)n1
The melting point of the first is lower: 164 °C for the first, 212 to 213 °C for the second.

First: CCCC1CCc2cc(NC(=O)OCC)ccc2O1 (stereo unspecified)
Second: COc1ccc2c(c1)CCC1CCN(CO)C(=O)C(CC(C)N(C)C(C)C)=C21 (stereo unspecified)
The melting point of the first is lower: 94 °C for the first, 158 to 161 °C for the second.

Compared with CC1(C)Oc2ccc(C(=O)CO)cc2[C@H](NC(=O)c2ccc(F)c(Cl)c2)[C@@H]1O, CC(=O)Nc1ccc(C(=O)O)cc1OC(C)=O is higher in melting point: 200 °C for the first, 219 to 221 °C for the second.

First: CC(=O)c1cc(Nc2cc(C)nc(N)n2)cc(C(C)=O)c1
Second: Cc1nc(N)nc(N)c1N1CCN(c2ccc(S(=O)(=O)N(C)C)cc2)CC1
The melting point of the first is lower: 240 to 241 °C for the first, 301 to 304 °C for the second.

Compared with COc1cccc(OC)c1-c1ccc(CC(NC(=O)Nc2ccccc2S(=O)(=O)c2ccccc2)C(=O)O)cc1 (stereo unspecified), O=C(Nc1ccc(Cl)c(C(F)(F)F)c1)Nc1ccc(OCc2ccccc2)cc1O is higher in melting point: 119 °C for the first, 182 to 184 °C for the second.

Compared with CCC(C(C)=CC(CNC(=O)c1nc[nH]c1C)=NO)[N+](=O)[O-] (stereo unspecified), CCN(CC)C(=O)c1cc([N+](=O)[O-])cnc1CBr is lower in melting point: 133 to 136 °C for the first, 62 to 64 °C for the second.

First: CCc1cccc2c(NC(=O)C[C@H]3O[C@H](c4cccc(OC)c4OC)c4cc(Cl)ccc4N(CC(C)(C)CO)C3=O)c(C(=O)O)oc12
Second: COc1ccccc1C1c2cc(NC(=O)CC(C)(C)C)c(C)c(C)c2OC1(C)C (stereo unspecified)
The melting point of the first is higher: 188 to 189 °C for the first, 169 to 170 °C for the second.

First: CC(C)(C)c1nc(C=Cc2cccnc2)nc(C(C)(C)C)c1O
Second: CC(C)(C)c1cc(C(c2ccccc2)N(O)C(N)=O)cc(C(C)(C)C)c1O (stereo unspecified)
The melting point of the first is lower: 150 to 151 °C for the first, 188 to 189 °C for the second.

Compared with Cc1c(S(=O)(=O)c2ccc(=O)[nH]n2)sc2ccc(Cl)cc12, COc1ccc(-c2ccc3[nH]c(=O)ccc3c2)cn1 is lower in melting point: 258 to 259 °C for the first, 248 to 252 °C for the second.

First: CN1C(=O)CC[C@]2(C)c3ccc(Sc4nc5c(F)cccc5s4)cc3CC[C@@H]12
Second: CN1C(=O)CCC2(C)c3ccc(Sc4ccc(Cl)cc4)cc3CCC12 (single isomer, unassigned; (+))
The melting point of the first is higher: 140 to 145 °C for the first, 122 to 124 °C for the second.

First: Cc1cc(C2=NNC(=O)CC2)ccc1CCCCN
Second: Cc1cc(N)nc(CCCCNC(=O)Cc2ccc3c(c2)OCO3)c1
The melting point of the first is higher: 145 to 147 °C for the first, 56 to 58 °C for the second.

Compared with COc1c(C)cccc1C(=N)N, COc1ccc(C(=O)SC)c(O)c1 is lower in melting point: 72 to 74 °C for the first, 56 to 57 °C for the second.

First: CCCCCc1cc2c(nc(O)n2CC(C)(C)O)c(N)n1
Second: CCCCCc1c(C(C)(C)O)nc(C(C)C)c(CO)c1-c1ccc(F)cc1
The melting point of the first is higher: 240 to 243 °C for the first, 180 to 182 °C for the second.

First: C[C@@H](NS(=O)(=O)N1CCN(c2ccc(OCc3ccc4ccccc4c3)cc2)CC1)C(=O)O
Second: CC1(Cc2ccc(OCc3ccccc3)cc2)OCCO1
The melting point of the first is higher: 167 to 171 °C for the first, 58 to 62 °C for the second.

First: NCc1ccccc1C(=O)N[C@H]1CN(S(=O)(=O)O)C1=O
Second: CC1(c2ccccc2)Cc2cc(CC(=O)O)c(Cl)c(Cl)c2C1=O (stereo unspecified)
The melting point of the first is higher: 162 to 165 °C for the first, 133 to 135 °C for the second.

First: CC12CCC3c4ccc(O)cc4CC(CCCCCO)C3C1C=CC2=O (stereo unspecified)
Second: COc1ccc(C2CC(=O)C(C(=O)O)=CN2C2CC2)cc1 (stereo unspecified)
The melting point of the first is higher: 194 to 196 °C for the first, 137 to 139 °C for the second.

Compared with Cc1c(NC(=O)c2cc3c(s2)C(=O)CCC3)cccc1-c1cn(C)c(=O)c(Nc2ccc(C3C(=O)N(C)CCN3C)cc2)n1 (stereo unspecified), Cc1ccc(C2(O)CCN(CCCN3c4cccc5cccc(c45)S3(=O)=O)CC2)cc1 is higher in melting point: 154 to 155 °C for the first, 218 °C for the second.

Compared with CCOC(=O)CN1C(=O)C(=S2CN(CC)c3ccccc32)SC1=S (stereo unspecified), CCOC(=O)C(=O)N(O)Cc1ccc2c(c1)OCc1ccccc1C2=O is lower in melting point: 250 to 252 °C for the first, 52 to 62 °C for the second.

First: CCn1cc(C(=O)O)c(=O)c2cc(F)c(N3CCC(NS(=O)(=O)c4ccc(N)cc4)C3)c(F)c21 (stereo unspecified)
Second: O=C1CNCc2cc(-c3ccc(F)cc3)c(C=NO)c3ccn1c23
The melting point of the first is lower: 214 to 216 °C for the first, 277 to 279 °C for the second.

First: CCCCc1c(OC)cc(C)c(C=CC(C)=CC=CC(C)=CC(=O)OCC)c1C
Second: CCOC(=O)C1=C(C)NC(C)=C(C(=O)OCCSc2ccccc2)C1C (stereo unspecified)
The melting point of the first is higher: 147 to 148 °C for the first, 143 to 145 °C for the second.

Compared with O=C1CCc2ncc3c(c21)CCO3, COc1cccc2c3c(n(C)c12)SCCC3=O is lower in melting point: 148 to 149 °C for the first, 106 to 108 °C for the second.

First: CCCCN(CC(=O)c1ccc(OCc2ccccc2)c2[nH]c(C(=O)OCCN3CCOCC3)cc12)Cc1ccccc1
Second: O=C(OCc1ccccc1)N1CCC(C(=O)O)(c2ccccc2)CC1
The melting point of the first is higher: 149 to 150 °C for the first, 142 to 144 °C for the second.

First: CCCCc1ccc(-c2ccc(CCC3OCC(CCC)CO3)cc2)c(F)c1 (stereo unspecified)
Second: CCCCC1(CCCC)c2cc(Br)ccc2-c2ccc(Br)cc21
The melting point of the first is lower: 36 °C for the first, 117 to 118 °C for the second.

First: CCOC(=O)c1cc2cc(F)cc(NS(=O)(=O)c3cccs3)c2[nH]1
Second: COCCNC(=O)Nc1nc2cc(OS(=O)(=O)c3c(C)cc(C)cc3C)ccc2[nH]1
The melting point of the first is higher: 174 to 175 °C for the first, 140 °C for the second.

COCC1CNc2nc(N)[nH]c(=O)c2N1 (racemic) and COc1cc([N+](=O)[O-])c(N)cc1C(=O)O cannot be ordered by melting point: over 250 °C for the first, 252 to 255 °C for the second.

First: Cc1cc(OC/C=C/c2ccc(F)cc2)c(C)c(C)c1NC=O
Second: CC(=O)Nc1ccc(/C=C/C(=O)O)cn1
The melting point of the first is lower: 196 to 198 °C for the first, 291 to 292 °C for the second.

First: COc1ccc(N2C(=O)C3=C(SCCS3)C2OC(=O)N2CCN(C)CC2)nn1 (stereo unspecified)
Second: COC(=O)CCc1ccc(-n2cnn(CCC3CCN(C(=O)OC(C)(C)C)CC3)c2=O)cc1
The melting point of the first is higher: 196 to 198 °C for the first, 139 to 141 °C for the second.

Compared with CC(C)Cn1c(=O)n(C)c(=O)c2c(SCCCN=[N+]=[N-])c(Cc3cccc4ccccc34)sc21, CCCc1c(SCCCOc2ccc3c(=O)cc(CCC(=O)O)oc3c2CCC)ccc(C(C)=O)c1O is higher in melting point: 94 to 96 °C for the first, 122 to 124 °C for the second.

First: COC1=CC(O)(SC(=O)N(C)C)C([N+](=O)[O-])C=C1 (stereo unspecified)
Second: CC(C)(C)OC(=O)C=Cc1ccc(O)cc1C=NO
The melting point of the first is lower: 101 °C for the first, 146 to 149 °C for the second.

First: CCC(=O)N1CC(=O)C2=C(C1)CN1NC(N3CCOCC3)=NC1=N2
Second: COc1cc(-c2ccc(O)c(C3(C)CCCCC3)c2)cc(CC2SC(N3CCOCC3)=NC2=O)c1OC (stereo unspecified)
The melting point of the first is higher: 278 to 280 °C for the first, 210 to 213 °C for the second.

First: SC1=Nc2ccccc2SN1
Second: OCc1nnc2n1-c1sc(Cl)cc1C(c1ccccc1Cl)=NC2
The melting point of the first is lower: 198 to 199 °C for the first, 219 to 221 °C for the second.

Compared with Cc1ccc2sc(C(C)(C)C)nc2c1, Clc1ccc2nc(-c3ccc(Cl)s3)cn2n1 is higher in melting point: 55 to 57 °C for the first, 226 to 230 °C for the second.

First: Cc1sc(CO)cc1CC#N
Second: CCCNCC(O)c1ccc(S(C)(=O)=O)cc1 (stereo unspecified)
The melting point of the first is lower: 66 to 68 °C for the first, 120 to 123 °C for the second.

First: O=C(O)C(O)Cn1nnnc1S (stereo unspecified)
Second: CCCCCCC(O)Cn1ccnc1 (stereo unspecified)
The melting point of the first is higher: 143 to 146 °C for the first, 44 to 45.5 °C for the second.

CCCC(CCC)C(=O)OC1N=C(c2ccccc2Cl)c2cc(Cl)ccc2NC1=O (stereo unspecified) gave a melting point of 191 to 193 °C.
